Measured values: PMC10510716

Test: Paal-Knorr-like closure of a side-chain 1,4-diketone (DOP, unmasked from 5-substituted furan in TFA/m-cresol 9:1) with a side-chain alkylhydrazine (Nu1), then air oxidation to a pyridazinium staple; crude redissolved in mQ water, pH adjusted to ~7.5
Details: the molecule shown is the open-chain precursor, pH ~7.5, 5.0 mM

| SMILES | ring closure, overall yield (29-membered ring) [%] | ring closure, overall yield (38-membered ring) [%] |
| --- | --- | --- |
| CC(=O)CCC(=O)CCC(=O)NCCC[C@H](NC(=O)[C@H](Cc1ccc(O)cc1)NC(C)=O)C(=O)N[C@@H](CCCNC(=N)N)C(=O)NCC(=O)N[C@@H](CC(=O)O)C(=O)N[C@@H](CCCNC(=O)CNN)C(=O)N[C@@H](CO)C(=O)N[C@@H](Cc1c[nH]c2ccccc12)C(N)=O [Ac-Y-Orn(4,7-dioxooctanoyl)*-R-G-D-Orn(COCH2NHNH2)*-S-W-NH2] | 16.8 |  |
| CC[C@H](C)[C@H](NC(=O)[C@H](CCCNC(=O)CNN)NC(=O)c1ccc(NC(C)=O)cc1)C(=O)N[C@@H](C)C(=O)N[C@@H](C)C(=O)N[C@@H](CC(C)C)C(=O)N[C@@H](CCCCN)C(=O)N[C@@H](CCC(=O)O)C(=O)N[C@@H](CCCCN)C(=O)N[C@H](C(=O)N[C@@H](CCCNC(=O)CNN)C(=O)N[C@@H](C)C(=O)N[C@@H](CC(C)C)C(=O)N[C@@H](CCCCN)C(=O)N[C@@H](CCC(=O)O)C(=O)N[C@@H](CCCCN)C(=O)N[C@H](C(=O)N[C@@H](CCCNC(=O)CCC(=O)CCC(C)=O)C(=O)N[C@@H](C)C(=O)N[C@@H](CC(C)C)C(=O)N[C@@H](CCCCN)C(=O)N[C@@H](CCC(=O)O)C(N)=O)[C@@H](C)CC)[C@@H](C)CC |  | 6.9 |
| CC[C@H](C)[C@H](NC(=O)[C@H](CCCNC(=O)CCC(=O)CCC(=O)c1ccc(OC)cc1)NC(=O)[C@H](CCCNC(=N)N)NC(=O)CNC(=O)[C@H](CCCCN)NC(=O)[C@H](CC(C)C)NC(=O)[C@H](Cc1c[nH]cn1)NC(=O)CNC(=O)[C@@H]1CCCN1C(C)=O)C(=O)NCC(=O)N[C@@H](CC(C)C)C(=O)N[C@@H](Cc1c[nH]c2ccccc12)C(=O)N[C@@H](Cc1ccc(O)cc1)C(=O)N[C@@H](C)C(=O)N[C@@H](CCCNC(=O)CNN)C(=O)N[C@@H](CCCCN)C(=O)N[C@@H](CCC(N)=O)C(=O)NCC(=O)N[C@@H](CCC(N)=O)C(=O)N[C@@H](CCCCN)C(=O)N[C@@H](CC(N)=O)C(=O)N[C@@H](CCCCN)C(N)=O |  | 17.1 |
| CC(=O)CCC(=O)CCC(=O)NCCC[C@H](NC(C)=O)C(=O)N[C@@H](Cc1c[nH]c2ccccc12)C(=O)N[C@@H](CCCNC(=N)N)C(=O)NCC(=O)N[C@@H](CC(=O)O)C(=O)N[C@@H](Cc1ccc(O)cc1)C(=O)N[C@@H](CO)C(=O)N[C@@H](CCCNC(=O)CNN)C(N)=O [Ac-Orn(4,7-dioxooctanoyl)*-W-R-G-D-Y-S-Orn(COCH2NHNH2)*-NH2] |  | 16.7 |
| COc1ccc(C(=O)CCC(=O)CCC(=O)NCCC[C@H](NC(C)=O)C(=O)N[C@@H](Cc2c[nH]c3ccccc23)C(=O)N[C@@H](CCCNC(=N)N)C(=O)NCC(=O)N[C@@H](CC(=O)O)C(=O)N[C@@H](Cc2ccc(O)cc2)C(=O)N[C@@H](CO)C(=O)N[C@@H](CCCNC(=O)CNN)C(N)=O)cc1 |  | 13.9 |
| CC[C@H](C)[C@H](NC(=O)[C@H](CCCNC(=O)CCC(=O)CCC(C)=O)NC(=O)[C@H](CCCNC(=N)N)NC(=O)CNC(=O)[C@H](CCCCN)NC(=O)[C@H](CC(C)C)NC(=O)[C@H](Cc1c[nH]cn1)NC(=O)CNC(=O)[C@@H]1CCCN1C(C)=O)C(=O)NCC(=O)N[C@@H](CC(C)C)C(=O)N[C@@H](Cc1c[nH]c2ccccc12)C(=O)N[C@@H](Cc1ccc(O)cc1)C(=O)N[C@@H](C)C(=O)N[C@@H](CCCNC(=O)CNN)C(=O)N[C@@H](CCCCN)C(=O)N[C@@H](CCC(N)=O)C(=O)NCC(=O)N[C@@H](CCC(N)=O)C(=O)N[C@@H](CCCCN)C(=O)N[C@@H](CC(N)=O)C(=O)N[C@@H](CCCCN)C(N)=O |  | 16.8 |
| CC[C@H](C)[C@H](NC(=O)[C@H](CCC(=O)O)NC(=O)[C@H](CCCNC(=N)N)NC(=O)CNC(=O)[C@H](CCCCN)NC(=O)[C@H](CC(C)C)NC(=O)[C@H](Cc1c[nH]cn1)NC(=O)CNC(=O)[C@@H]1CCCN1C(C)=O)C(=O)NCC(=O)N[C@@H](CC(C)C)C(=O)N[C@@H](Cc1c[nH]c2ccccc12)C(=O)N[C@@H](Cc1ccc(O)cc1)C(=O)N[C@@H](C)C(=O)N[C@@H](CCCNC(=O)CNN)C(=O)N[C@@H](CCCCN)C(=O)N[C@@H](CCC(N)=O)C(=O)NCC(=O)N[C@@H](CCCNC(=O)CCC(=O)CCC(C)=O)C(=O)N[C@@H](CCCCN)C(=O)N[C@@H](CC(N)=O)C(=O)N[C@@H](CCCCN)C(N)=O | 18.2 |  |
